{"source": "patent US20070197599A1", "about": "“HYDROXYLAMINES AND DERIVATIVES AS ANTI-ANGIOGENIC AGENTS” (priority 2006, published 2007)", "key": {"[1]": {"test_system": "H2O2-induced angiogenesis in the CAM model", "assay": "H2O2-induced angiogenesis in the chick chorioallantoic membrane (CAM) model", "assay_type": "in vivo", "protocol": "(§1) Neovascularization was examined by previously described methods (see references at the end of Example 5). Ten-day-old fertilized chicken eggs were incubated at 37° C. with 55% relative humidity. In the dark with the help of candling lamp and using a hypodermic needle a small hole was punctured in the shell covering the air sac. A second hole was punctured on the wider side of the egg above an avascular area of the embryonic membrane. An artificial air sac was created below the second hole by applying gentle vacuum to the first hole using a small rubber squeeze bulb. The vacuum caused the separation of chorioallantoic membrane (CAM) from the shell. An approximately 1.0 cm^2 widow was cut in the shell over the dropped CAM with the use of a mini drill. The underlying CAM was accessed through this small window.\n(§2) Filter disks were punched using a small puncher from filter paper #1 (Whatman International, United Kingdom). Filter disks were soaked in 3 mg/ml cortisone acetate solution (95% ethanol and water) and air-dried under sterile condition. For inducing angiogenesis, sterile filter disks were saturated with bFGF (1 μg/ml) or other pro-angiogenesis factors and control disks were saturated with PBS without Calcium and Magnesium.\n(§3) Using sterile forceps one filter/CAM was placed from the window. The window was sealed with Highland brand transparent tape. After 24 hr, 10-25 µl of test agent (inhibitor) was injected intravenously or added topically into the CAM membrane of bFGF or other pro-angiogenesis factors stimulated CAMs. • Control filter disks received PBS without Calcium and Magnesium. • After 48 hr, CAM tissue directly beneath filter disk was harvested and placed in a 35-mm Petri dish. Eight-Ten eggs/treatment group was used.\n(§4) A pro-angiogenic agent (see Examples, below) was added to induce new blood vessel branches on the CAM of 10-day old embryos. Sterile disks of #1 filter paper (Whatman International, United Kingdom) were pre-treated with 3 mg/ml cortisone acetate, and air dried under sterile conditions. The disks were then suspended in PBS (Phosphate Buffered Saline) and placed on growing CAMs. Filters treated with TPH (TEMPOL-H) or TEMPOL and/or H2O2 or TPH and/or bFGF or VEGF were placed on the first day of the 3-day incubation.\n(§5) Digital Images and Microscopic analysis of CAM sections: CAM sections from Petri dish were examined using SV6 stereomicroscope (Karl Zeiss) at 50× magnification. Digital images were captured using a 3-CCD color video camera system (Toshiba America, New York, N.Y.). These images were analyzed using Image-Pro Plus software (Media Cybernetics). The number of branch points in blood vessels within the circular region superimposed to the area of a filter disk was counted for each section. After incubation at 37° C. with 55% relative humidity for 3 days, the CAM tissue directly beneath each filter disk was resected from control and treated CAM samples. Tissues were washed three times with PBS. Sections were placed in a 35-mm Petri dish (Nalge Nunc; Rochester, N.Y.) and were examined under a SV6 stereomicroscope (Karl Zeiss; Thornwood, N.Y.) at 50× magnification. Digital images of CAM sections adjacent to filters were collected using a 3-CCD color video camera system (Toshiba America; New York, N.Y.) and analyzed with the Image-Pro Plus software (Media Cybernetics; Silver Spring, Md.). The number of vessel branch points contained in a circular region equal to the area of a filter disk was counted for each section. Percent inhibition data are expressed as the quotient of the experimental value minus the negative control value divided by the difference between the positive control value and the negative control value. One image was counted in each CAM preparation, and findings from eight CAM preparations were analyzed for each treatment condition. In addition, each experiment was performed three times. […]"}, "[2]": {"test_system": "bFGF-induced angiogenesis in the CAM model", "assay": "bFGF-induced angiogenesis in the CAM model (TPH)", "assay_type": "in vivo, chick", "protocol": "as §1, §2, §3, §4, §5"}, "[3]": {"assay": "Single-dose 10-minute intravenous infusion toxicokinetics in Sprague-Dawley rats", "assay_type": "in vivo", "protocol": "Blood for toxicokinetic evaluations was collected at pre-determined time points during and after the infusion.\nAll pharmacokinetic analyses were performed using Kinetica®, version 4.2 (Innaphase, Philadelphia, Pa.).\nCmax is the observed maximum plasma concentration\nTmax is the time Cmax is reached\nT1/2 is the elimination half-life\nThe plasma concentrations were rounded to the nearest tenth of a ng/mL before the calculations. […] Nominal time points were used for all calculations."}, "[4]": {"conditions": "H2O2 (88 μM, 30 ng) + 100 μg test agent"}, "[5]": {"conditions": "H2O2 (88 μM, 30 ng) + 200 μg test agent"}, "[6]": {"conditions": "H2O2 (88 μM, 30 ng) + 400 μg test agent"}, "[7]": {"conditions": "H2O2 (88 μM, 30 ng) + 800 μg test agent"}, "[8]": {"conditions": "after Compound 1 10 mg/kg iv infusion"}, "[9]": {"conditions": "after Compound 1 30 mg/kg iv infusion"}, "[10]": {"conditions": "after Compound 1 100 mg/kg iv infusion"}}, "note": "“And” between values parts separate entries of the source, which are not always exact repeats. Equal entries are not always repeated.", "data": [{"smiles": "CC1(C)CC(O)CC(C)(C)N1O", "note": "[TPH]", "values": [{"measurement": "inhibition of angiogenesis induced by super-maximal concentrations of H2O2", "setting": "[1]; CAM model, Tables 1A and 1B", "result": "effectively inhibited"}, {"measurement": "% Inhibition ± SD", "setting": "[1]; [4]", "result": "28.0 ± 13.6", "unit": "%"}, {"measurement": "Branch pts ± SEM", "setting": "[1]; [4]", "result": "155 ± 14.4"}, {"measurement": "% Inhibition ± SD", "setting": "[1]; [5]", "result": "32.9 ± 8.4", "unit": "%"}, {"measurement": "Branch pts ± SEM", "setting": "[1]; [5]", "result": "151.3 ± 15.3"}, {"measurement": "% Inhibition ± SD", "setting": "[1]; [6]", "result": "44.7 ± 6.6", "unit": "%"}, {"measurement": "Branch pts ± SEM", "setting": "[1]; [6]", "result": "137.2 ± 6.9"}, {"measurement": "% Inhibition ± SD", "setting": "[1]; [7]", "result": "55.7 ± 7.2", "unit": "%"}, {"measurement": "Branch pts ± SEM", "setting": "[1]; [7]", "result": "127.3 ± 6.4"}, {"measurement": "inhibition of bFGF-induced angiogenesis", "setting": "[2]; 100-400 μg", "result": "dose-dependent inhibition"}, {"measurement": "Mean % Inhibition ± SD", "setting": "[2]; bFGF (1 μg/ml) + TPH 100 μg", "result": "20 ± 12", "unit": "%"}, {"measurement": "Mean Branch points ± SEM", "setting": "[2]; bFGF (1 μg/ml) + TPH 100 μg", "result": "172 ± 12.4"}, {"measurement": "Mean % Inhibition ± SD", "setting": "[2]; bFGF (1 μg/ml) + TPH 200 μg", "result": "45.3 ± 7.5", "unit": "%"}, {"measurement": "Mean Branch points ± SEM", "setting": "[2]; bFGF (1 μg/ml) + TPH 200 μg", "result": "147.2 ± 7.5"}, {"measurement": "Mean % Inhibition ± SD", "setting": "[2]; bFGF (1 μg/ml) + TPH 400 μg", "result": "58.7 ± 10.9", "unit": "%"}, {"measurement": "Mean Branch points ± SEM", "setting": "[2]; bFGF (1 μg/ml) + TPH 400 μg", "result": "133.8 ± 10.8"}, {"measurement": "Mean % Inhibition ± SD", "setting": "[2]; bFGF (1 μg/ml) + TPH 800 μg", "result": "28.1 ± 6.8", "unit": "%"}, {"measurement": "Mean Branch points ± SEM", "setting": "[2]; bFGF (1 μg/ml) + TPH 800 μg", "result": "164.2 ± 6.7"}, {"measurement": "plasma levels of TPH at 4 hr post infusion", "setting": "[3]; after Compound 1 10 mg/kg dose", "result": "still quantifiable"}, {"measurement": "AUC(0-4.167 hr) of TPH", "setting": "[3]; [8]", "result": 1694.8, "unit": "ng·h/mL"}, {"measurement": "Cmax of TPH", "setting": "[3]; [8]", "result": 2481.7, "unit": "ng/mL"}, {"measurement": "Tmax of TPH", "setting": "[3]; [8]", "result": 10, "unit": "min"}, {"measurement": "T½ of TPH (elimination half-life)", "setting": "[3]; [8]", "result": 24, "unit": "min"}, {"measurement": "Plasma concentration of TPH", "setting": "[3]; after Compound 1 10 mg/kg iv infusion, 0.167 hr", "result": "2481.7 ± 325.8", "unit": "ng/mL"}, {"measurement": "Plasma concentration of TPH", "setting": "[3]; after Compound 1 10 mg/kg iv infusion, 1.167 hr", "result": "204.7 ± 85.6", "unit": "ng/mL"}, {"measurement": "Plasma concentration of TPH", "setting": "[3]; after Compound 1 10 mg/kg iv infusion, 2.167 hr", "result": "25.2 ± 24.0", "unit": "ng/mL"}, {"measurement": "Plasma concentration of TPH", "setting": "[3]; after Compound 1 10 mg/kg iv infusion, 4.167 hr", "result": "4.2 ± 10.3", "unit": "ng/mL"}, {"measurement": "AUC of TPH", "setting": "[3]; after Compound 1 10 mg/kg iv infusion, to time infinity", "result": 1697.5, "unit": "ng·h/mL"}, {"measurement": "Cmax of TPH", "setting": "[3]; [9]", "result": 8337.7, "unit": "ng/mL"}, {"measurement": "Tmax of TPH", "setting": "[3]; [9]", "result": 10, "unit": "min"}, {"measurement": "Plasma concentration of TPH", "setting": "[3]; after Compound 1 30 mg/kg iv infusion, 0.167 hr", "result": "8337.7 ± 2099.5", "unit": "ng/mL"}, {"measurement": "Plasma concentration of TPH", "setting": "[3]; after Compound 1 30 mg/kg iv infusion, 4.167 hr", "result": "53.8 ± 29.7", "unit": "ng/mL"}, {"measurement": "Cmax of TPH", "setting": "[3]; [10]", "result": 29020.8, "unit": "ng/mL"}, {"measurement": "Tmax of TPH", "setting": "[3]; [10]", "result": 10, "unit": "min"}, {"measurement": "Plasma concentration of TPH", "setting": "[3]; after Compound 1 100 mg/kg iv infusion, 0.167 hr", "result": "29020.8 ± 11713.7", "unit": "ng/mL"}, {"measurement": "Plasma concentration of TPH", "setting": "[3]; after Compound 1 100 mg/kg iv infusion, 4.167 hr", "result": "160.0 ± 97.5", "unit": "ng/mL"}, {"measurement": "Tmax of TPH", "setting": "[3]; after Compound 1 200 mg/kg iv infusion", "result": 10, "unit": "min"}, {"measurement": "Plasma concentration of TPH", "setting": "[3]; after Compound 1 200 mg/kg iv infusion, 0.167 hr", "result": "60802.2 ± 8922.5", "unit": "ng/mL"}, {"measurement": "Plasma concentration of TPH", "setting": "[3]; after Compound 1 200 mg/kg iv infusion, 4.167 hr", "result": "524.5 ± 237.0", "unit": "ng/mL"}, {"measurement": "Cmax of TPH", "setting": "[3]; after Compound 1 200 mg/kg iv infusion, 200 mg/kg", "result": "60802.1 ng/mL and 60802.2 ng/mL"}, {"measurement": "levels of TPH at four hours after terminating the infusion relative to concentrations immediately after terminating the infusions", "setting": "[3]; after Compound 1 30, 100 and 200 mg/kg", "result": "less than 1%"}]}]}
